Reference: ChEMBL document CHEMBL4339238, “Potent Anti-HIV Ingenane Diterpenoids from Euphorbia ebracteolata” (J Nat Prod, 2019)

Tests used:
[1] = test system: Human immunodeficiency virus 1; assay: Antiviral activity against HIV NL4-3 infected in human MT4 cells measured on day 3 post-infection by Nano-Glo luciferase assay; format: functional, organism-based; conditions: Human immunodeficiency virus 1, NL4-3, MT4, 72 h
[2] = Cytotoxicity against human MT4 cells measured after 3 days by CytoTox-Glo assay; format: cell-based
[3] = Selectivity index, ratio of CC50 for human MT4 cells to IC50 for HIV NL4-3 infected in human MT4 cells; format: toxicity, cell-based; conditions: read-out: Ratio CC50/IC50

SMILES | IC50 [1] [nM] | CC50 at 72 h [2] [nM] | selectivity ratio [3]
CCCCCCCCCCCCCCCC(=O)O[C@H]1C(C)=C[C@]23C(=O)[C@@H](C=C(CO)[C@@H](O)[C@]12O)[C@H]1[C@@H](C[C@H]3C)C1(C)C | 4.1 | 26300 | 6420
CCCCC/C=C/C=C/C(=O)O[C@@H]1C(COC(C)=O)=C[C@@H]2C(=O)[C@]3(C=C(C)[C@H](O)[C@@]13O)[C@H](C)C[C@@H]1[C@H]2C1(C)C | 1.2 | 15200 | 13000
CCCCC/C=C\C=C\C(=O)O[C@@H]1C(COC(C)=O)=C[C@@H]2C(=O)[C@]3(C=C(C)[C@H](O)[C@@]13O)[C@H](C)C[C@@H]1[C@H]2C1(C)C | 0.7 | 14300 | 20300
CCCCC/C=C\C=C\C(=O)O[C@H]1C(C)=C[C@]23C(=O)[C@@H](C=C(COC(C)=O)[C@@H](O)[C@]12O)[C@H]1[C@@H](C[C@H]3C)C1(C)C | 1.8 | > 900 | > 526
CCCCCCCCCCCCCC(=O)O[C@H]1C(C)=C[C@]23C(=O)[C@@H](C=C(CO)[C@@H](O)[C@]12O)[C@H]1[C@@H](C[C@H]3C)C1(C)C | 2.3 | 26300 | 11300
CCCC\C=C/C=C/C=C/C(=O)O[C@H]1C(C)=C[C@]23C(=O)[C@@H](C=C(COC(C)=O)[C@@H](O)[C@]12O)[C@H]1[C@@H](C[C@H]3C)C1(C)C | 8.4 | > 900 | > 111
CCCCCCCCCCCCCCCC(=O)O[C@@H]1C(CO)=C[C@@H]2C(=O)[C@]3(C=C(C)[C@H](O)[C@@]13O)[C@H](C)C[C@@H]1[C@H]2C1(C)C | 4.4 | > 1700 | > 385
CCCCC/C=C/C=C/C(=O)O[C@H]1C(C)=C[C@]23C(=O)[C@@H](C=C(COC(C)=O)[C@@H](O)[C@]12O)[C@H]1[C@@H](C[C@H]3C)C1(C)C | 5 | > 900 | > 185
CCCCCCCCCCCCCC(=O)OCC1=C[C@@H]2C(=O)[C@]3(C=C(C)[C@H](O)[C@@]3(O)[C@@H]1O)[C@H](C)C[C@@H]1[C@H]2C1(C)C | 8.6 | 32400 | 3770
CCCCCCCCCCCCCCCC(=O)OCC1=C[C@@H]2C(=O)[C@]3(C=C(C)[C@H](O)[C@@]3(O)[C@@H]1O)[C@H](C)C[C@@H]1[C@H]2C1(C)C | 1.1 | > 1700 | > 1540
CCCCCC/C=C/CCCCCCCC(=O)O[C@H]1C(C)=C[C@]23C(=O)[C@@H](C=C(CO)[C@@H](O)[C@@]12O)[C@H]1[C@@H](C[C@H]3C)C1(C)C | 1.1 | 13900 | 13100
CCCC\C=C/C=C\C=C\C(=O)O[C@H]1C(C)=C[C@]23C(=O)[C@@H](C=C(COC(C)=O)[C@@H](O)[C@]12O)[C@H]1[C@@H](C[C@H]3C)C1(C)C | 9.7 | > 900 | > 96.2
CCCCCC/C=C\CCCCCCCC(=O)O[C@H]1C(C)=C[C@]23C(=O)[C@@H](C=C(CO)[C@@H](O)[C@@]12O)[C@H]1[C@@H](C[C@H]3C)C1(C)C | 2.7 | > 1700 | > 625
CCCCCCCCCCCCCC(=O)O[C@@H]1C(CO)=C[C@@H]2C(=O)[C@]3(C=C(C)[C@H](O)[C@@]13O)[C@H](C)C[C@@H]1[C@H]2C1(C)C | 3.9 | > 1800 | > 454
CCCCCCCCCC(=O)OCC1=C[C@@H]2C(=O)[C@]3(C=C(C)[C@H](O)[C@@]3(O)[C@@H]1O)[C@H](C)C[C@@H]1[C@H]2C1(C)C | 8.2 | 48800 | 5980
CC1=C[C@]23C(=O)[C@@H](C=C(CO)[C@@H](O)[C@]2(O)[C@H]1O)[C@H]1[C@@H](C[C@H]3C)C1(C)C [INGENOL] | > 10 | > 10000 | 
Cc1cn([C@H]2C[C@H](N=[N+]=[N-])[C@@H](CO)O2)c(=O)[nH]c1=O [ZIDOVUDINE] | 18.7 | > 370 | > 20
